Assay results: paper PMC11627468, “Novel enzyme‐resistant pancreatic polypeptide analogs evoke pancreatic beta‐cell rest, enhance islet cell turnover, and inhibit food intake in mice” (Biofactors (Oxford, England), 2024)

Legend:
C57BL/6 mice = experiment: Acute food intake in overnight fasted mice; format: in vivo; conditions: n = 6
Procedure: Acute in vivo studies were conducted in groups (n = 6) of 4‐month‐old male C57BL/6 mice (Envigo, Huntington, UK). All mice were maintained on standard rodent chow (10% fat, 30% protein, and 60% carbohydrate; Trouw Nutrition, Northwich, UK), and drinking water provided ad libitum. Mice were housed individually and kept in a temperature‐controlled environment (22 ± 2°C), with a 12‐h light/dark cycle. Experiments were carried out in accordance with the UK Animal Scientific Procedures Act 1986 as well as being approved by Ulster University Animal Ethics Review Committee (AWERB) committee and protected by the UK Home Office Animal project license number PPL2902, approved on April 26, 2021. Acute effects of test peptides on food intake were tested in overnight (16 h) fasted mice. Briefly, fasted mice were administered an intraperitoneal (i.p.) injection of saline vehicle (0.9% (w/v) NaCl) alone or in combination with test peptides (each at 25, 75, or 200 nmol/kg bw) and cumulative food intake measured at regular intervals, to assess the pharmacodynamic profile of the test peptides. For food intake studies, mice were provided with preweighed rodent maintenance diet in their food hopper at t = 0 min, which was then re‐weighed at each timepoint with all due care taken to account for any wastage or crumbling of the food pellets. In this regard, the investigator was present at all times during the 180‐min test period to ensure accuracy and consistency in all measurements. Furthermore, effects of PP or related peptides (25 nmol/kg bw) on glucose homeostasis and insulin secretion were evaluated in overnight fasted mice following i.p. injection of glucose alone (18 mmol/kg bw) or in combination with PP peptides (each at 25 nmol/kg bw).

BRIN‐BD11 beta‐cells = experiment: In vitro insulin secretion from BRIN‐BD11 beta‐cells; format: cell-based; conditions: 20 min, insulin radioimmunoassay, n = 8
Procedure: Effects of the PP and related peptides on insulin secretion were examined in pancreatic BRIN‐BD11 beta‐cells. The secretory characteristics of this cell line have been described in detail previously.[22] Cells were cultured in RPMI 1640 media (Gibco Life Technologies Ltd), with a glucose concentration of 11.1 mM and supplemented with 10% v/v fetal bovine serum (Gibco), 1% v/v antibiotics (0.1 mg/mL streptomycin and 100 U/mL penicillin) at 37°C in 5% atmospheric CO2. For experimentation, cells were seeded into 24‐well plates (Falcon Ltd) at a density of 150,000 cells per well. Following overnight attachment, media was aspirated, and cells were preincubated in 1.1 mM glucose KRB buffer for 40 min. Following preincubation, the 1.1 mM glucose solution was removed and 1 mL of KRB test solution, containing 16.7 mM glucose with PP peptides (10^−12 to 10^−6 M) was added for 20 min. In a separate series, PP peptides were also incubated in the presence of alanine (10 mM) at 16.7 mM glucose to further investigate the effects on insulin secretion. For all experiments, following a 20 min incubation period, the supernatant was collected and stored at −20°C until insulin concentration determination using a dextran‐coated charcoal insulin radioimmunoassay.[23]

Question: What does the source list for `CC[C@H](C)[C@H](NC(=O)[C@H](Cc1ccc(O)cc1)NC(=O)[C@H](CCCNC(=N)N)NC(=O)[C@H](CCCNC(=N)N)NC(=O)[C@H](CC(C)C)NC(=O)[C@H](CC(=O)O)NC(=O)[C@H](C)NC(=O)[C@H](C)NC(=O)[C@H](Cc1ccc(O)cc1)NC(=O)[C@H](CCC(N)=O)NC(=O)[C@H](C)NC(=O)[C@H](CCSC)NC(=O)[C@H](CCC(N)=O)NC(=O)[C@H](CCC(=O)O)NC(=O)[C@@H]1CCCN1C(=O)[C@@H](NC(=O)[C@H](C)NC(=O)[C@H](CC(N)=O)NC(=O)[C@H](CC(=O)O)NC(=O)CNC(=O)[C@@H]1CCCN1C(=O)[C@H](Cc1ccc(O)cc1)NC(=O)[C@@H](NC(=O)[C@@H]1CCCN1C(=O)[C@H](CCC(=O)O)NC(=O)[C@H](CC(C)C)NC(=O)[C@@H]1CCCN1C(=O)[C@H](C)N)C(C)C)[C@@H](C)O)C(=O)N[C@@H](CC(N)=O)C(=O)N[C@@H](CCSC)C(=O)N[C@@H](CC(C)C)C(=O)N[C@H](C(=O)N[C@@H](CCCNC(=N)N)C(=O)N1CCC[C@H]1C(=O)N[C@@H](CCCNC(=N)N)C(=O)N[C@@H](Cc1ccc(O)cc1)C(N)=O)[C@@H](C)O` [PP, Pancreatic polypeptide]?
Answer: cumulative food intake (appetite suppression) (C57BL/6 mice; 25 nmol/kg i.p., overnight (16 h) fasted mice, up to 180 min, versus saline): particularly effective; food intake in combination with CCK‐8 (C57BL/6 mice; PP peptide 25 nmol/kg with CCK‐8 25 nmol/kg i.p., fasted mice, compared with CCK‐8): significantly (p = <0.05 to 0.01) augment this effect from 90 min onwards; food intake in combination with exendin‐4 (C57BL/6 mice; PP peptide 25 nmol/kg with exendin‐4 0.25 nmol/kg i.p., fasted mice): additive appetite suppressive actions; insulin secretion at 16.7 mM glucose (BRIN‐BD11 beta‐cells; peptide 10^−6 M): slight inhibitory effect; insulin secretion at 16.7 mM glucose (BRIN‐BD11 beta‐cells; peptides 10^−12 to 10^−7 M): no discernible impact
